Where only a bound is given, the exact number is not on record here.

One series deals with Oncorhynchus mykiss. The conditions noted are these: acute; duration: 96 hours; mortality.
For the next series, the system named is Tagia sp. The conditions noted are these: acute; duration: 14 days; mortality.
The next series has as its system Pimephales promelas. The conditions noted are these: chronic/long-term; duration: 35 days; other.
For the next series, the system named is Daphnia magna. The conditions noted are these: chronic/long-term; duration: 21 days; reproduction.
The next series concerns Folsomia candida. The conditions noted are these: chronic/long-term; duration: 28 days.
The test system of another series is Anas platyrhynchos. The conditions noted are these: chronic/long-term.
The test system of another series is Colinus virginianus. The conditions noted are these: acute, oral, mortality.
In the next series the test system is Apis mellifera. The conditions noted are these: acute, duration: 48 hours, mortality.
The subject of another series is Aphidius rhopalosiphi. In words: LR50; higher = less toxic. The conditions noted are these: not reported; mortality.
The subject of a further series is Typhlodromus pyri. In words: LR50; higher = less toxic. The conditions noted are these: not reported; mortality.

In the case of `COC(=O)c1csc(C)c1S(=O)(=O)NC(=O)n1nc(OC)n(C)c1=O` [Thiencarbazone-methyl], the LC50 is over 104 µg/mL in the series on Oncorhynchus mykiss and over 1000 mg/kg in the series with Tagia sp.. Also, the NOEC with Pimephales promelas was 4.8 mg/L; with Daphnia magna, 3.54 mg/L; in the series with Folsomia candida, 1000 mg/kg. In addition, the figures for the NOEL in the series on Anas platyrhynchos and in the series with Rattus norvegicus (chronic) were 24 mg/kg-day and 946 mg/kg-day, respectively. The LD50 is over 2000 mg/kg-day in the series with Rattus norvegicus (acute, oral, mortality); over 699 mg/kg-day in the series with Colinus virginianus (diet); over 2000 mg/kg-day in the series on Colinus virginianus; over 200 µg/piece in the series with Apis mellifera (dermal); over 199 µg/piece with Apis mellifera (oral, unspecified). The NOAEL stood at 22.8 mg/kg-day with Rattus norvegicus (chronic, duration: 2 years) and 24.7 mg/kg-day in the series on Rattus norvegicus (subchronic, duration: 90 days, oral). Moreover, the LR50 was over 45 g/ha in the series with Aphidius rhopalosiphi and over 0.45 g/ha in the series on Typhlodromus pyri.

A word on the NOAEL: it is the highest dose or exposure tested at which no adverse effect was seen.

The record behind these values is EPA's ToxValDB 9.5 (doi:10.2903/j.efsa.2013.3270).
